Patent US7067533B2, “Aminophenoxyacetamide derivatives and pharmaceutical composition containing thereof” (Daiichi Asubio Pharma Co., Ltd., priority 2000, dated 2006)

Key:
[1] = tested on: cerebral edema (water content of cerebral hemisphere), Wistar rats; assay: Biological Test 5: cerebral edema suppressing effect; format: in vivo; details: iv, 144 h, rat, post-TBI day 6, read-out: Cerebral edema suppressing rate (%); for inhibition in vivo at 3 mg/kg: 3 mg/kg intravenously just after the operation; for inhibition in vivo at 1 mg/kg: 1 mg/kg intravenously just after the operation
Experimental: Adult male Wistar rats weighing 210–230 g were used in the present study and housed in an artificially controlled environment with 12-hour light/dark cycle. Animals were anesthetized with pentobarbital sodium (50 mg/kg of body weight, i.p., Nembutal, Dinabbott, Japan) and placed in a stereotaxic apparatus. The skull was exposed and a hole was made on the parietal bone; 1.5 mm posterior and 0.8 mm lateral to the bregma. All procedures were performed under a surgery microscope to avoid excess irritation to the meninges and the underlying brain. A brass screw with a blunt tip (1.0 mm in diameter and 3.0 mm in length, Biomedica, Japan) was inset in the hole. The screw tip protruding intracranially was approximately 2.5 mm, which stuck into the parietal part of the right cerebrum through the meninges. In sham-operated rats, scalp was closed without attaching a screw to the hole. After surgery, all rats were kept in their original dens until sacrifice. Rats were allowed to feed chow and water ad libitum.
Under anesthesia the rat cerebral hemispheres of the target were processed for water content on post-TBI day 6 (n=6). The cerebral hemispheres dissected out were weighed, dried for 24 hours at 110 degree (Celsius) and then weighed again. The subtracted amount of the wet and dry weights was regarded as tissue water of the target, and utilized for the analysis of the cerebral edema.
The water content was calculated by using the following formula:
Water content (%) =[(wet weight of hemisphere—dry weight of hemisphere)/wet weight of hemisphere]×100
The test compounds were intravenously administered just after the operation via tail vein of the rats.

[2] = tested on: primary cultures (neurons) from cerebral cortices of fetal Wistar rats; assay: Biological Test 2: antagonism of the neuroprotective effect by MTA treatment (MTT); format: cell-based, rat; details: 0.75 mM MTA added 30 minutes before test compound, glutamate
Experimental: This biological test is performed to determine whether the neuroprotective effect of the test compounds is due to the activation of receptors of physiological active substances or not, by using antagonistic test for neutralizing antibody and Inhibitor for FGF, NT-3, NT-4/5, BDNF, IGF-I/II, NGF, PDGF and estrogen, respectively.
Chem., 268, 4244 (1993)]. Therefore, the neuroprotective effect of the test compounds is inhibited by treatment of MTA, this effect is depended by the signal transfer effect through the phosphorylation of FGF receptor.
The inhibitors of the various kinds of receptor were dissolved in the optimum concentration, and MTA was dissolved in the concentration of 7.5 mM, just before the using. 30 minutes before the treatment of the test compounds, the optimum concentration of each inhibitors or 0.75 mM of MTA was added, and the neuroprotective effect of the test compounds was determined by mean of MTT method.

[3] = tested on: primary cultures (neurons) from cerebral cortices of fetal Wistar rats; assay: Biological Test 1: neuroprotective effect against glutamate induced neuronal cell death (MTT); format: cell-based, rat; details: Compound: 1 μM; glutamate 1 mM; control group = 100%
Experimental: Cultures were maintained at 37 C. in a 90% air/10% CO2 humidified incubator. Glutamate was added to the culture at day 4 to the final concentration of 1 mM. […] MTT was dissolved in phosphate buffered saline (PBS, pH 7.4) at 5 mg/ml and filtered to sterilize and remove a small amount of insoluble residue present in some batches of MTT, and added to the cultures at a final concentration of 0.5 mg/ml.
The test compounds (1 μM) was added 24 hrs prior to glutamate treatment and simultaneously with glutamate.
Survival rate of living cells (%) =[(test compound group—glutamic acid treated group)÷(control group—glutamic acid treated group)]×100

[4] = tested on: primary cultures (neurons) from cerebral cortices of fetal Wistar rats; assay: Biological Test 4: neuroprotective inhibiting effect by calbindin antisense oligonucleotide (MTT); format: cell-based, rat; details: 300 μM glutamic acid

Compound | Survival Rate (%) (Compound: 1 μl & MTA treatment) [2] | Survival Rate (%) (Compound: 1 μl) [3] | further results
Cc1c(C)c(OC(C)C(=O)N(C)C2CCN(CC3CC3c3ccccc3)CC2)c(C)c(C)c1N (stereo not drawn) [Compound 26, 2-(4-Amino-2,3,5,6-tetramethylphenoxy)-N-methyl-N-[1-(trans-2-phenyl-1-cyclopropylmethyl)-4-piperidniyl]propanamide] | – | – | inhibition in vivo at 3 mg/kg [1]: 11.9%
Cc1c(C)c(OCC(=O)N(C)C2CCN(CCN3CCOCC3)CC2)c(C)c(C)c1N [Compound 16, 2-(4-Amino-2,3,5,6-tetramethylphenoxy)-N-methyl-N-{1-[2-(4-morpholinyl)ethyl]-4-piperidinyl}acetamide] | 33% | 101% | –
Cc1c(C)c(OCC(=O)N(C)C2CCN(CC(=O)c3ccccc3)CC2)c(C)c(C)c1N [Compound 10, 2-(4-Amino-2,3,5,6-tetramethylphenoxy)-N-[1-(2-phenyl-2-oxoethyl)-4-piperidinyl]-N-methylacetamide] | 31% | 86% | –
Cc1c(C)c(OC(C)(C)C(=O)N(C)C2CCN(CCc3ccccc3)CC2)c(C)c(C)c1N [Compound 28, 2-(4-Amino-2,3,5,6-tetramethylphenoxy)-N,2-dimethyl-N-[1-(2-phenylethyl)-4-piperidinyl]propanamide] | 46% | 103% | –
Cc1c(C)c(OCC(=O)N(C)C2CCN(C(C)Cc3ccccc3)CC2)c(C)c(C)c1N (centres unmarked) [Compound 22, 2-(4-Amino-2,3,5,6-tetramethylphenoxy)-N-methyl-N-[1-(1-methyl-2-phenylethyl)-4-piperidinyl]acetamide] | 32% | 79% | –
Cc1c(C)c(OCC(=O)N(C)C2CCN(CC(O)c3ccccc3)CC2)c(C)c(C)c1N (centres unmarked) [Compound 11, 2-(4-Amino-2,3,5,6-tetramethylphenoxy)-N-[1-(2-hydroxy-2-phenylethyl)-4-piperidinyl]-N-methylacetamide] | 56% | 74% | –
Cc1c(C)c(OC(C)C(=O)N(C)C2CCN(CC(=O)N(C)c3ccccc3)CC2)c(C)c(C)c1N (centres unmarked) [Compound 27, 2-(4-Amino-2,3,5,6-tetramethylphenoxy)-N-methyl-N-{1-[2-(N-methylanilino)-2-oxoethyl]-4-piperidinyl}propanamide] | – | – | inhibition in vivo at 3 mg/kg [1]: 11.8%
Cc1cc(C)c(NCC(=O)N(C)C2CCN(c3ccc(F)cc3)CC2)c(C)c1N [Compound 39, 2-(3-Amino-2,4,6-trimethylanilino)-N-[1-(4-fluoro-phenyl)-4-piperidinyl]-N-methylacetamide] | 28% | 94% | –
Cc1c(C)c(OCC(=O)N(C)C2CCN(CC(=O)Nc3ccccc3)CC2)c(C)c(C)c1N [Compound 7, 2-(4-Amino-2,3,5,6-tetramethylphenoxy)-N-[1-(2-anilino-2-oxoethyl)-4-piperidinyl]-N-methylacetamide] | 32% | 76% | –
Cc1c(C)c(OCC(=O)N(C)C2CCN(CC3CC3)CC2)c(C)c(C)c1N [Compound 12, 2-(4-Amino-2,3,5,6-tetramethylphenoxy)-N-(1-cyclo-propylmethyl-4-piperidinyl)-N-methylacetamide] | 33% | 54% | inhibition in vivo at 3 mg/kg [1]: 14.7%
Cc1c(C)c(OCC(=O)N(C)C2CCN(CCOCC(O)c3ccccc3)CC2)c(C)c(C)c1N (centres unmarked) [Compound 17, 2-(4-Amino-2,3,5,6-tetramethylphenoxy)-N-{1-[2-(2-hydroxy-2-phenylethoxy)ethyl]-4-piperidinyl}-N-methylacetamide] | 55% | 85% | –
Cc1c(C)c(NCC(=O)N(C)C2CCN(c3nc4ccccc4s3)CC2)c(C)c(C)c1N [Compound 37, 2-(4-Amino-2,3,5,6-tetramethylanilino)-N-[1-(1,3-benzothiazol-2-yl)-4-piperidinyl]-N-methylacetamide] | 20% | 95% | –
Cc1c(C)c(OCC(=O)N(C)C2CCN(Cc3ccc(C(N)=O)cc3)CC2)c(C)c(C)c1N [Compound 19, 4-({4-[[(4-Amino-2,3,5,6-tetramethylphenoxy)acetyl]-(methyl)amino]-1-piperidinyl}methyl)bezamide] | 28% | 96% | –
Cc1c(C)c(N)c(C)c(OCC(=O)N(C)C2CCN(Cc3ccc(C#N)cc3)CC2)c1C [Compound 34, 2-(3-Amino-2,4,5,6-tetramethylphenoxy)-N-[1-(4-cyano-benzyl)-4-piperidinyl]-N-methylacetamide] | 21% | 74% | –
Cc1c(C)c(OCC(=O)N(C)C2CCN(CC(=O)N(C)c3ccccc3)CC2)c(C)c(C)c1N [Compound 15, 2-(4-Amino-2,3,5,6-tetramethylphenoxy)-N-methyl-N-{1-[2-(N-methylanilino)-2-oxoethyl]-4-piperidinyl}acetamide] | – | – | inhibition in vivo at 1 mg/kg [1]: 14.7%
CCCCN1CCC(N(C)C(=O)COc2c(C)c(C)c(N)c(C)c2C)CC1 [Compound 9, 2-(4-Amino-2,3,5,6-tetramethylphenoxy)-N-(1-butyl-4-piperidinyl)-N-methylacetamide] | 5% | 104% | –
BFGF: Reference test substance in Table 10 (1 ng, 10 ng); not defined further; FGF is a physiologically active substance inducing CalbindinD-28k | – | – | Survival Rate (%) [antisense (+): 5 μM] ([4]; 1 ng): 8%; Survival Rate (%) [antisense (−)] ([4]; 1 ng): 71%; Survival Rate (%) [antisense (+): 5 μM] ([4]; 10 ng): 35%; Survival Rate (%) [antisense (−)] ([4]; 10 ng): 101%
Cc1c(C)c(OCC(=O)N(C)C2CCN(CCOc3ccccc3)CC2)c(C)c(C)c1N [Compound 14, 2-(4-Amino-2,3,5,6-tetramethylphenoxy)-N-methyl-N-[1-(2-phenoxyethyl)-4-piperidinyl]acetamide] | – | – | inhibition in vivo at 1 mg/kg [1]: 18.7%
Cc1c(C)c(NCC(=O)N(C)C2CCN(c3ccc(F)cc3)CC2)c(C)c(C)c1N [Compound 38, 2-(4-Amino-2,3,5,6-tetramethylanilino)-N-[1-(4-fluorophenyl)-4-piperidinyl]-N-methylacetamide] | 19% | 124% | Survival Rate (%) [antisense (+): 5 μM] ([4]; 0.1 μM): 28%; Survival Rate (%) [antisense (−)] ([4]; 0.1 μM): 100%; Survival Rate (%) [antisense (+): 5 μM] ([4]; 1 μM): 33%; Survival Rate (%) [antisense (−)] ([4]; 1 μM): 106%
Cc1c(C)c(N)c(C)c(OCC(=O)N(C)C2CCN(C(=O)c3ccccc3)CC2)c1C [Compound 33, 2-(3-Amino-2,4,5,6-tetramethylphenoxy)N-(1-benzoyl-4-piperidinyl)-N-methylacetamide] | 46% | 120% | –
Cc1c(C)c(C)c(OCC(=O)N(C)C2CCN(CCc3ccccc3)CC2)c(N)c1C [Compound 29, 2-(2-Amino-3,4,5,6-tetramethylphenoxy)-N-methyl-N-[1-(2-phenylethyl)-4-piperidinyl]acetamide] | – | – | inhibition in vivo at 1 mg/kg [1]: 13.8%
